Measured values reported in patent publication US20050227978A1, “Fibrosis inhibitor” (Sumitomo Pharmaceuticals Co., Ltd., priority 2002, published 2005).

What was measured:
TGF-β = experiment: Effects on the extracellular matrix (proteoglycan) production by TGF-β in NRK-49F fibroblasts; assay type: cell-based; conditions: Rattus norvegicus, NRK-49F cells, 3 ng/ml TGF-β, [35S]-proteoglycan radioactivity, 24 hours, read-out: TGF-β inhibitory rate (%); for inhibition at 3 µM: test compound 3 μM; for inhibition at 10 µM: test compound 10 μM
Method: Effects on the Extracellular Matrix Production by TGF-β
The effect of the compounds of Examples on the production of proteoglycan when TGF-β was added to fibroblast was evaluated.
NRK-49F cells (rat fibroblast) were cultured in Dulbecco's Modified Eagle Medium (DMEM: manufactured by GIBCO) containing 10% bovine serum, and used in this experiment. The cells were put into a 96-well plate in an amount of 2.5×10^4 cells/100 μl/well. On the next day, the medium in the plate was exchanged to the DMEM medium containing 3 ng/ml of TGF-β (manufactured by Nacalai Tesque, Inc.), 0.5 μCi/well of [^35S]-Na2SO4, and a test compound. Twenty-four hours thereafter, the supernatant was collected, and subjected to SDS-polyacrylamide gel electrophoresis (SDS-PAGE) in a conventional manner. The gel after electrophoresis was dried with a gel drier, and exposed to an imaging plate, which was analyzed with BSA2000 (manufactured by Fuji Photo Film). The radioactivity of proteoglycan to be electrophoresed was measured, and the TGF-β inhibitory rate was calculated by the following equation. TGF-β Inhibitory rate (%)=(A−B)×100/(A−C) • A: Radioactivity in the presence of TGF-β without a test compound • B: Radioactivity in the presence of TGF-β and a test compound • C: Radioactivity in the absence of TGF-β and a test compound

[1] = test system: rat Thy-1 nephritis model; experiment: Evaluation using rat Thy-1 nephritis model (kidney fibrosis); assay type: in vivo; conditions: 7 days
Method: The anti-fibrosis activity was evaluated on the compounds of Examples 9, 14, 110, 120 and 136 by using a rat Thy-1 nephritis model, which is an animal model for kidney fibrosis (cf., “Kidney and Dialysis”, vol. 31, p. 343-347 (1991)). Thy-1 is one of the surface antigens of thymocyte.
Male Wister rats were purchased from Charles River Japan, Inc. at an age of 3-weeks old. After pre-feeding, the animals were used in this experiment when their body weights became about 100 g. The animals were kept in a room being controlled at a temperature of 24±2° C. under a humidity of 55±10%, with an illumination cycle of light on (8:00 to 20:00). The animals were given solid diet pellets (CRF-1, Oriental Yeast Co. Ltd.) and sterilized tap water ad libitum.
Anti-Thy-1 monoclonal antibody (OX-7, Biosource International Inc.) was administered to the rats at a dose of 50 μg/100 g of body weight at the tail vein. Then, the animals were grouped into the vehicle-treated group (n=8) and the test compound-treated group (n=8) with respect to the body weight. From the day of administration of anti-Thy-1 monoclonal antibody, a test compound, which was suspended in a 0.5% carboxymethylcellulose (vehicle), […] To the vehicle-treated group, a vehicle was administered likewise.
After the administration for 7 days, the right kidney of the rats was taken out, and the content of hydroxyproline therein, which was an index for organ fibrosis, was measured according to the method of J. F. Woessner, et al. (Arch. Biochem. Biophys. Vol. 93 p440 (1961)). That is, the kidney was homogenized, and 500 μL of the suspension was dried, and thereto was added a 4N aqueous sodium hydroxide solution (225 μL). The mixture was heated on a heat block at 100° C. for 15 minutes to hydrolyze proteins, and the mixture was neutralized with a 1.4 M aqueous citric acid solution (275 μL). The mixture was centrifuged at 3000 rpm for 10 minutes at room temperature, and the supernatant was collected as a kidney extract. To the extract were added Chloramine T solution and an Ehrlich solution (which was prepared by adding n-propanol (31 ml) to p-dimethylaminobenzaldehyde (7.5 g), and further slowly adding thereto a 60% perchloric acid (13 mL), and followed by adjusting the volume to 50 ml by distilled water), and the mixture was reacted at 65° C. for 15 minutes. The OD 550 (absorbance at 550 nm) was measured, and the concentration of hydroxyproline was calculated from the analytical curve of hydroxyproline. The content of hydroxyproline thus obtained was adjusted with respect to the protein amount in the kidney extract.
Each value was expressed in average value±standard deviation of 8 animals in each group.

Row | Structure (SMILES) | inhibition at 3 µM (TGF-β) [%] | inhibition at 10 µM (TGF-β) [%] | other results
1 | CN(C)C(=O)c1ccc(C(=O)c2cccn2Cc2cnc3ccccc3c2)cc1 [Example 76] | 56 | 58 | 
2 | Cc1ccc(C(=O)c2cccn2Cc2cnc3ncccc3n2)cc1 [Example 73] | 70 | 85 | 
3 | Cc1ccc(C(=O)c2c(C)ccn2Cc2cnc3ccccc3c2)cc1 [Example 108] | 42 | 56 | 
4 | Cc1ccc(C(=O)c2cccn2Cc2cnc3ccccc3c2)c(O)c1 [Example 85] | 29 | 75 | 
5 | Cc1ccc(C(=O)c2cccn2Cc2cnc3c(/C=C/C(=O)N(C)C)cccc3c2)cc1 [Example 61] | 15 | 86 | 
6 | Cc1ccc(C(=O)c2cccn2Cc2ccnc3ccccc23)cc1 [Example 3] | 25 | 38 | 
7 | Cc1ccc(C(=O)c2cc(C=O)cn2C/C=C/c2ccc(Cl)cc2C(=O)O)cc1 [Example 112] | 23 | 73 | 
8 | Cc1ccc(C(=O)c2cccn2Cc2cnc3nccnc3c2)cc1 [Example 105] | 14 | 48 | 
9 | Cc1ccc(C(=O)c2cccn2Cc2cnc3ccccc3c2)cc1 [Example 2] | 33 | 61 | 
10 | Cc1ccc(C(=O)c2cccn2Cc2cnc3cc(Cl)ccc3c2)cc1 [Example 33] | 74 | 91 | 
11 | COc1ccc(C(=O)c2cc(C)cn2C/C=C/c2ccc(Cl)cc2C(=O)O)cc1 [Example 110] |  |  | Hydroxyproline content ([1]; 1.5 mg/kg oral, kidney, Table 3: normal rat 8.2 ± 0.8, vehicle 11.8 ± 0.6, P < 0.01 vs vehicle): 10.1 ± 0.8 μg/mg protein; Hydroxyproline content ([1]; 5 mg/kg oral, kidney, Table 3: normal rat 8.2 ± 0.8, vehicle 11.8 ± 0.6, P < 0.01 vs vehicle): 9.5 ± 0.8 μg/mg protein; Hydroxyproline content ([1]; 15 mg/kg oral, kidney, Table 3: normal rat 8.2 ± 0.8, vehicle 11.8 ± 0.6, P < 0.01 vs vehicle): 9.7 ± 0.7 μg/mg protein; Hydroxyproline content ([1]; 50 mg/kg oral, kidney, Table 3: normal rat 8.2 ± 0.8, vehicle 11.8 ± 0.6, P < 0.01 vs vehicle): 9.5 ± 0.6 μg/mg protein
12 | Cc1ccc(C(=O)c2cccn2Cc2cnc3ccccc3c2)cc1OCC(O)CO (centres unmarked) [Example 83] | 42 | 47 | 
13 | CNC(=O)c1cc(Cl)ccc1/C=C/Cn1cccc1C(=O)c1ccc(C)cc1 [Example 117] | 71 | 83 | 
14 | Cc1ccc(Cc2cccn2Cc2ccc3ccccc3n2)cc1 [Example 5] | 6 | 51 | 
15 | Cc1ccc(C(=O)c2cccn2C/C=C/c2ccc(Cl)cc2C(=O)O)cc1 [Example 9] | 88 | 91 | Hydroxyproline content ([1]; 15 mg/kg oral once a day, right kidney, Table 2: normal rat 6.7 ± 1.6, vehicle 8.7 ± 2.0, mean ± SD, n=8): 7.2 ± 2.1 μg/mg protein
16 | Cc1ccc(C(=O)c2cccn2Cc2cnc3cccc(C(=O)O)c3c2)cc1 [Example 43] | 31 | 66 | 
17 | C=CCOc1ccc(C(=O)c2cccn2Cc2cnc3ccccc3c2)cc1 [Example 10] | 63 | 86 | 
18 | Cc1ccc(C(=O)c2cccn2Cc2cnc3cc(C#N)ccc3n2)cc1 [Example 67] | 55 | 75 | 

Row | Structure (SMILES) | inhibition at 3 µM (TGF-β) [%] | inhibition at 10 µM (TGF-β) [%] | other results
19 | COC(=O)c1cc(Cl)ccc1/C=C/Cn1cccc1C(=O)c1ccc(O)cc1 [Example 103] | 55 | 90 | 
20 | Cc1ccc(C(=O)c2cccn2Cc2cnc3cccnc3n2)cc1 [Example 8] | 16 | 46 | 
21 | Cc1ccc(C(=O)c2cccn2Cc2cnc3c(C#N)cccc3c2)cc1 [Example 38] | 51 | 40 | 
22 | Cc1ccc(C(=O)c2cccn2Cc2cnc3c(C#N)cccc3n2)cc1 [Example 66] | 88 | 94 | 
23 | Cc1ccc(C(=O)c2cccn2Cc2cnc3ccccc3n2)cc1 [Example 64] | 43 | 75 | 
24 | O=C(c1ccc(O)cc1)c1cccn1Cc1cnc2ccccc2c1 [Example 14] | 40 | 56 | Hydroxyproline content ([1]; 150 mg/kg oral once a day, right kidney, Table 2: normal rat 6.7 ± 1.6, vehicle 8.7 ± 2.0, P < 0.05 vs vehicle): 6.3 ± 1.3 μg/mg protein
25 | Cc1ccc(C(=O)c2cccn2Cc2cnc3cccc(C(N)=O)c3c2)cc1 [Example 31] | 34 | 38 | 
26 | COC(=O)c1cc(Cl)ccc1/C=C/Cn1cc(C)cc1C(=O)c1ccc(O)cc1 [Example 111] | 90 | 118 | 
27 | O=C(c1ccc(OCCN2CCOCC2)cc1)c1cccn1Cc1cnc2ccccc2c1 [Example 97] | 58 | 75 | 
28 | Cc1ccc(C(=O)c2cccn2C/C=C/c2ccc(Cl)cc2C(=O)NS(C)(=O)=O)cc1 [Example 115] | 46 | 56 | 
29 | Cc1ccc(C(=O)c2cc(C)cn2Cc2cnc3ccccc3c2)cc1 [Example 107] | 90 | 95 | 
30 | Cc1ccc(Cc2cccn2Cc2cnc3ccccc3c2Cl)cc1 [Example 25] | 6 | 74 | 
31 | Cc1ccc(C(=O)c2cccn2C/C=C/c2ccccc2C(=O)O)cc1 [Example 19] | 51 | 72 | 
32 | Cc1ccc(Cn2cccc2Cc2cnc3ccccc3c2)cc1 [Example 7, 1-(4-methylbenzyl)-2-(3-quinolylmethyl)-1H-pyrrole] | 44 | 78 | 
33 | COc1ccc(C(=O)c2cccn2Cc2cnc3ccccc3n2)cc1 [Example 91] | 66 | 73 | 
34 | Cc1ccc(S(=O)(=O)n2cccc2C(O)c2cnc3ccccc3c2)cc1 (centres unmarked) [Example 6, (1-p-toluenesulfonyl-1H-pyrrol-2-yl)(3-quinolyl)methanol] | 66 | 88 | 
35 | Cc1ccc(C(O)c2cccn2Cc2cnc3ccccc3c2)cc1 (centres unmarked) [Example 20, [1-(3-quinolylmethyl)-1H-pyrrol-2-yl](4-methylphenyl)methanol] | 61 | 90 | 
